Results as given in patent US20170105953A1, “METHOD FOR SUPPRESSING DIABETES AND/OR HEPATIC LIPIDS USING TORMENTIC ACID” (priority 2015, published 2017).

How the values were obtained:
Format in all cases: in vivo
[1] = tested on: epididymal WAT and liver tissue; experiment: histopathology of epididymal WAT and liver tissue; conditions: HF diet-fed C57BL/6J mice, Rosi 0.01 g/kg/day oral gavage 4 weeks
Description: (§1) For part 2, C57BL/6J mice (4 weeks old) were obtained from the National Laboratory Animal Breeding and Research Center. The mice were divided randomly into two groups after 7 days acclimation. The control (CON) group (n=9) was fed a low-fat diet (diet 12450B, Research Diets, Inc., New Brunswick, N.J., USA), whereas the experimental group was fed a 45% high-fat diet (diet 12451, Research Diets, Inc.) for 12 weeks. The compositions of the experimental diets are given in previous studies. After 8 weeks, the high-fat treated mice were randomly subdivided into four groups (n=9) including PTA1 (0.06 g/kg/day), PTA2 (0.12 g/kg/day) or rosiglitazone (Rosi; 1% methylcellulose, 10 mg/kg body weight) (GlaxoSmithKline) or vehicle and treated by oral gavage one time per day from the 9th to 12th weeks, while the mice were still on the high-fat diet, whereas the CON and high-fat control (HF) mice were treated with vehicle only. At the end, food was withheld from the animals (from 10 p.m. to 10 a.m.). The next day, the mice were sacrificed for blood and tissue collection and analysis. Livers, skeletal muscles, and white adipose tissues (WATs) (including epididymal, mesenteric, and retroperitoneal WAT) were weighed and excised, followed by immediate freezing, and kept at −80° C. for target gene analysis. Heparin (30 units/mL) (Sigma) was added to blood samples. Plasma samples were collected within 30 min by centrifugation at 1600 g for 15 min at 4° C. Plasma was obtained for insulin and leptin assay.
Small pieces of epididymal WAT and liver tissue were fixed with formalin (200 g/kg) neutral buffered solution and embedded in paraffin. Sections (8 μm) were cut and stained with hematoxylin and eosin. For microscopic examination, a microscope (Leica, DM2500) was used, and the images were taken using a Leica Digital camera (DFC-425-C).

[2] = blood parameters in high-fat diet-fed mice; conditions: HF diet-fed C57BL/6J mice, Rosi 0.01 g/kg/day oral gavage 4 weeks
Protocol: as §1, with “The control (CON) group (n=9) was fed a low-fat diet (diet 12450B, Research Diets, Inc., New Brunswick, N.J., USA), whereas the experimental group was fed a 45% high-fat diet (diet 12451, Research Diets, Inc.) for 12 weeks.” left out
Blood samples (0.8 mL) were collected from the retro-orbital sinus of fasted mice, and the glucose level was analyzed by the glucose oxidase method (model 1500; Sidekick Glucose Analyzer; YSI Inc., Yellow Springs, Ohio, USA). Plasma triglycerides (TG), total cholesterol (TC), and free fatty acids (FFA) were measured using commercial assay kits according to the manufacturer's directions (Triglycerides-E test, Cholesterol-E test, and FFA-C test, Wako Pure Chemical, Osaka, Japan). The levels of insulin and leptin in blood were analyzed by ELISA using a commercial assay kit according to the manufacturer's directions (mouse insulin ELISA kit, Sibayagi, Gunma, Japan; and mouse leptin ELISA kit, Morinaga, Yokohama, Japan).

[3] = hepatic lipids in high-fat diet-fed mice; conditions: HF diet-fed C57BL/6J mice, Rosi 0.01 g/kg/day oral gavage 4 weeks; mean ± SE, n=9
Description: as §1
Hepatic lipids were extracted using a previously described protocol. For the hepatic lipid extraction, 0.375 g liver samples were homogenized with 1 mL of distilled water for 5 min. Finally, the dried pellet was resuspended in 0.5 mL of ethanol and analyzed using a triglycerides kit as used for serum lipids.

CN(CCOc1ccc(CC2SC(=O)NC2=O)cc1)c1ccccn1 (stereo not drawn) [Rosi, rosiglitazone, reference compound]
average area of adipocytes (epididymal WAT) [1]: 4574.4±162.7 μm^2 | hepatocellular ballooning mean score ([1]; grade 0 none, 1 a few cells, 2 many cells): 0.9±0.2 | blood glucose ([2]; week 12): 89.7 mg/dL | Blood profiles: FFA (plasma free fatty acid) ([2]; mean ± SE, n=9): 1.85 ± 0.28 mequiv/L | Blood profiles: Insulin ([2]; mean ± SE, n=9): 56.4 ± 13.8 μU/mL | Blood profiles: Leptin ([2]; mean ± SE, n=9): 2.15 ± 0.099 ng/mL | Blood profiles: TC (total cholesterol) ([2]; mean ± SE, n=9): 140.7 ± 14.1 mg/dL | Liver lipids: Total lipid [3]: 74.7 ± 5.7 mg/g | Liver lipids: Triacylglycerol [3]: 43.8 ± 4.7 µmol/g
